The values below come from US10975080B2, “Compounds and compositions for inhibiting the activity of SHP2” (NOVARTIS AG, priority 2015, dated 2021).

Each structure is given as a SMILES string. pIC50: −log10 of the molar value.

In this assay the target is SHP2 (Homo sapiens (Human), UniProt Q06124). Description: SHP2 Allosteric Inhibition Assay. In kind it is biochemical. The following applies: 0.5 nM SHP2 with 0.5 μM peptide IRS1_pY1172(dPEG8)pY1222; surrogate substrate DiFMUP; 25° C.; read-out: SHP2 IC50. Summed up: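 Phosphatase activity of bis-tyrosyl-phosphopeptide-activated SHP2 was read by prompt fluorescence from DiFMUP turnover. After 30–60 min preincubation at 25 °C, DiFMUP was added for 30 min at 25 °C. IC50s came from control-normalized dose-response fitting.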
Chain of SHP2 (Q06124 whole entry): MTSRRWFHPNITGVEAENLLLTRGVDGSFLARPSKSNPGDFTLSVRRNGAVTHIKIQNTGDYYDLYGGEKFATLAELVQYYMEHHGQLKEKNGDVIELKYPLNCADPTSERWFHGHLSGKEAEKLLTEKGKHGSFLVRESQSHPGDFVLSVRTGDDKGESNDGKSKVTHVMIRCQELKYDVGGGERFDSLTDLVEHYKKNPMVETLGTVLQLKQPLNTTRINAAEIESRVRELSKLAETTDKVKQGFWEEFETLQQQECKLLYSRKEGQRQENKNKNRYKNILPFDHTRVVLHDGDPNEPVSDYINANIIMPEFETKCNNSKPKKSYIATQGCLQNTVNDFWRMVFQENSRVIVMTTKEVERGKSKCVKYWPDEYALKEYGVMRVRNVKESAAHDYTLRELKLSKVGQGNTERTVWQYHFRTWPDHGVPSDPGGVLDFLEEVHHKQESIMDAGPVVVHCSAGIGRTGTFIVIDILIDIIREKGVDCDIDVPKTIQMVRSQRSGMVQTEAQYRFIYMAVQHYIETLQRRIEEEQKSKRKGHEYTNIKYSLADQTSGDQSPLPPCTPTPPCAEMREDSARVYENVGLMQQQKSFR

For orientation: pIC50 means the IC50 on a negative log10 scale, so that one unit is a factor of ten. Turning to `C[C@@H]1OCC2(CCN(c3nc4[nH]nc(-c5ccnc(NC6CCC6)c5Cl)c4c(=O)n3C)CC2)[C@@H]1N` [Example 29, 6-((3S,4S)-4-amino-3-methyl-2-oxa-8-azaspiro[4.5]decan-8-yl)-3-(3-chloro-2-(cyclobutylamino)pyridin-4-yl)-5-methyl-1,5-dihydro-4H-pyrazolo[3,4-d]pyrimidin-4-one], the pIC50 was 7.46.

As to `Cn1c(N2CCC(C)(CN)CC2)nc2[nH]nc(-c3ccnc(Cl)c3Cl)c2c1=O` [Example 25, 6-(4-(aminomethyl)-4-methylpiperidin-1-yl)-3-(2,3-dichloropyridin-4-yl)-5-methyl-1,5-dihydro-4H-pyrazolo[3,4-d]pyrimidin-4-one], the pIC50 was 7.00.
